In brackets after ≈: the same amount, converted by molar mass. Where only a bound is given, the exact number is not on record here.

The test system of assay [1] is Staphylococcus aureus. Nature of the assay: Antimicrobial activity against Staphylococcus aureus RN4220. The class given is functional.
A short description of assay [2]: (§1) Antimicrobial activity against Bacillus sp. BS-01 expressing multiple resistance gene cfr and […] resistance gene fexA obtained from swine feces. The assay is classed as functional. The conditions noted are these: Bacillus sp. BS-01, Feces.
The subject of assay [3] is Staphylococcus aureus. Nature of the assay: Antimicrobial activity against Staphylococcus aureus RN4220 harboring pBS-01multiple resistance gene cfr and phenolic resistance gene fexA obtained from swine feces.
The test system of assay [4] is Bacillus sp. BS-01. The assay is described as §1. The assay is classed as functional.

Take `O=C(O)c1cn(C2CC2)c2cc(N3CCNCC3)c(F)cc2c1=O` [CIPROFLOXACIN]: the values for the MIC in assay [1], in assay [2] and in assay [3] were 0.5 µg/mL (≈ 1.51 µM), 8 µg/mL (≈ 24.1 µM) and 0.5 µg/mL (≈ 1.51 µM), respectively.
As to `CC[C@H]1OC(=O)[C@H](C)[C@@H](O[C@H]2C[C@@](C)(OC)[C@@H](O)[C@H](C)O2)[C@H](C)[C@@H](O[C@@H]2O[C@H](C)C[C@H](N(C)C)[C@H]2O)[C@](C)(O)C[C@@H](C)C(=O)[C@H](C)[C@@H](O)[C@]1(C)O` [ERYTHROMYCIN], the MIC in assay [1] was over 64 µg/mL; in assay [2], over 64 µg/mL; in assay [3] it was 0.25 µg/mL (≈ 0.341 µM).
With GENTAMICIN, the MIC in assay [1] amounted to 0.25 µg/mL; in assay [4], 8 µg/mL.
With `CC(=O)NC[C@H]1CN(c2ccc(N3CCOCC3)c(F)c2)C(=O)O1` [LINEZOLID], the MIC in assay [2] came out at 2 µg/mL (≈ 5.93 µM); in assay [3], 1 µg/mL (≈ 2.96 µM).
In assay [2], `CN[C@H](CC(C)C)C(=O)N[C@H]1C(=O)N[C@@H](CC(N)=O)C(=O)N[C@H]2C(=O)N[C@H]3C(=O)N[C@H](C(=O)N[C@H](C(=O)O)c4cc(O)cc(O)c4-c4cc3ccc4O)[C@H](O)c3ccc(c(Cl)c3)Oc3cc2cc(c3O[C@@H]2O[C@H](CO)[C@@H](O)[C@H](O)[C@H]2O[C@H]2C[C@](C)(N)[C@H](O)[C@H](C)O2)Oc2ccc(cc2Cl)[C@H]1O` [VANCOMYCIN] gave an MIC of 0.5 µg/mL (≈ 0.345 µM).
With `CS(=O)(=O)c1ccc([C@@H](O)[C@@H](CF)NC(=O)C(Cl)Cl)cc1` [FLORFENICOL], the MIC in assay [1] turned out to be 16 µg/mL (≈ 44.7 µM); in assay [2] it was 32 µg/mL (≈ 89.3 µM); in assay [3] it was 4 µg/mL (≈ 11.2 µM).
Turning to `CCC[C@@H]1C[C@@H](C(=O)N[C@@H]([C@H]2O[C@H](SC)[C@H](O)[C@@H](O)[C@H]2O)[C@H](C)Cl)N(C)C1` [CLINDAMYCIN], the results for the MIC in assay [1], in assay [2] and in assay [3] were over 32 µg/mL, over 32 µg/mL and under 0.625 µg/mL, respectively.
As to `O=C(N[C@H](CO)[C@H](O)c1ccc([N+](=O)[O-])cc1)C(Cl)Cl` [CHLORAMPHENICOL], the MIC in assay [1] came out at 16 µg/mL (≈ 49.5 µM); in assay [2], 32 µg/mL (≈ 99 µM); in assay [3] it was 4 µg/mL (≈ 12.4 µM).
As for `CN(C)[C@@H]1C(O)=C(C(N)=O)C(=O)[C@@]2(O)C(O)=C3C(=O)c4c(O)cccc4[C@@](C)(O)[C@H]3C[C@@H]12` [TETRACYCLINE], the MIC is 1 µg/mL (≈ 2.25 µM) in assay [1], 32 µg/mL (≈ 72 µM) in assay [2] and 1 µg/mL (≈ 2.25 µM) in assay [3].
Consider `C=C[C@]1(C)C[C@@H](OC(=O)CSCCN(CC)CC)[C@]2(C)[C@H](C)CC[C@]3(CCC(=O)[C@H]32)[C@@H](C)[C@@H]1O` [TIAMULIN], for which the MIC was 32 µg/mL (≈ 64.8 µM) in assay [1], 256 µg/mL (≈ 518 µM) in assay [2] and under 0.5 µg/mL in assay [3].

Usually MIC stands for the lowest concentration found to suppress growth. Read a low MIC as inhibition by little substance.

These data come from ChEMBL document CHEMBL1649326, “First report of the multidrug resistance gene cfr and the phenicol resistance gene fexA in a Bacillus strain from swine feces” (2010).
